Tests used:
CD34+ cells [1] = assay type: cell-based; conditions: for cell death rate (in words) / cell proliferation (in words): CD34+ cells, FIG. 6B, 6D
Procedure: Normal human primitive umbilical cord blood CD34+ cells were from AllCells (Emeryville, Calif.). CD34+ cells were expanded^29 about 50× by using StemSpan serum-free medium (StemCell Technologies, Vancouver, Canada) for 6 days according to the manufacturer's protocol. To induce granulopoiesis, CD34+ cells were cultured with myeloid medium supplemented with 25 ng/ml of G-CSF^17,29 for 6-12 days. […]. Each retinoid compound was dissolved in ethanol. The experimentally determined conditions, using 25 ng/ml of G-CSF^17,29 or 2.5 nM of Am80 for granulocytic induction of 6 days (FIG. 1), were applied in the studies.
Cell proliferation was determined by cell count with a standard hemocytometer, as described.^17,29 Briefly, equal numbers of cells plated in triplicate were counted for up to 13 days after 72 hr of plating. By using trypan blue exclusion, cell proliferation and its associated cell death in the cultures were measured simultaneously.

S. aureus = assay: Bactericidal activity in vitro of neutrophils purified from PB of treated neutropenic mice
Procedure: Each 5×10^5 to 2×10^6 of freshly purified PBN as well as ex vivo-induced GIN and AIN were suspended with 500 μl of culture medium (DMEM with 10% of FBS) in 1.5-ml tubes. Cells were incubated with log-phase Escherichia coli (E. coli) DH5α (provided by collaborator) or Staphylococcus aureus (S. aureus; ATCC) at an MOI of 5 or 10 at 37° C. for 15, 30, and/or 60 min, whereas bacteria in the absence of cells were used to determine growth. The samples with or without cells were centrifuged at 1000-rpm at each time point. Extracellular bacteria in the presence of cells were collected from the supernatants, and enumerated by plating different dilutions (20 μL each) on blood agar. Cell pellets collected from the samples infected with bacteria were further incubated with 100 μg/ml of gentamicin (Sigma) for 1 hr at 37° C. to kill external bacteria. Cells were then washed twice and lysed with 100 μL of 0.5% Triton X-100. Different-dilution aliquots (20 μL for each) of viable intracellular bacteria recovered from the cell lysates were plated on blood agar. The numbers of extracellular and viable intracellular bacteria at each time point were determined by CFU counts as described,^5,30 while the number of phagocytosed and killed bacteria was based on the counts of extracellular and viable intracellular bacteria to the number of relevant bacteria control in the neutrophil-free condition.^5,30

CD34+ cells [2] = assay: Morphologic analysis of granulocytic differentiation of CD34+ cells; assay type: cell-based, human; conditions: for neutrophil morphologic differentiation, promyelocyte to segmented stage (in words): G-CSF 25 ng/ml or Am80 2.5 nM; for efficacy as inducer of granulocytic differentiation (in words): CD34+ cells, FIG. 6, day 12-13
Procedure: Normal human primitive umbilical cord blood CD34+ cells were from AllCells (Emeryville, Calif.). CD34+ cells were expanded^29 about 50× by using StemSpan serum-free medium (StemCell Technologies, Vancouver, Canada) for 6 days according to the manufacturer's protocol. To induce granulopoiesis, CD34+ cells were cultured with myeloid medium supplemented with 25 ng/ml of G-CSF^17,29 for 6-12 days. Lymphoid and erythroid cells were blocked during granulopoiesis by addition of hydrocortisone and exclusion of erythropoietin.^17, 29 All-trans retinoic acid (RA) was from Sigma (St. Louis, Mo.), while the retinoid agonists Am80, CH55, and IT-YA-01115 (ITYA) were from Research Foundation ITSUU Laboratory (Tokyo, Japan). Each retinoid compound was dissolved in ethanol. The experimentally determined conditions, using 25 ng/ml of G-CSF^17,29 or 2.5 nM of Am80 for granulocytic induction of 6 days (FIG. 1), were applied in the studies.
Cell suspensions were cytocentrifuged onto Micro slides, followed by methanol fixation and stained with Wright-Giemsa (Sigma) as described.^17,29 The morphologic indicators of differentiation were evaluated under a Zeiss Axioplan microscope, and images were color balanced with Adobe Photoshop as described.^17
Cells suspended in PBS containing 0.5% BSA and 2 mM EDTA were mixed with anti-CD15 antibodies conjugated to magnetic microbeads (Miltenyi Biotec, Bergish Gladbach, Germany) for incubation of 30 min at 4° C. CD15+ subpopulation was then purified by using magnetic sorter (Miltenyi Biotec, Bergish Gladbach, Germany) according to the manufacturer's protocol.

neutropenic mice = assay: Neutrophil recovery in CPA-induced neutropenic mice; assay type: in vivo, C57BL6/J mice
[3] = system: acute promyelocytic leukemia (APL); conditions: APL patients; cited from earlier work
[4] = system: neutrophils induced from CD34+ cells; assay: Degranulation analysis by Western blotting with or without E. coli stimuli; assay type: cell-based, human; conditions: FIGS. 1, 2
Procedure: Western blotting (WB) was performed as described.^15 Antibodies for lactoferrin (Abcam, Cambridge, UK), MMP-9 (Merck Chemicals, Darmstadt, Germany), and LL-37 (Biolegend, San Diego, Calif.) were used in analyses.
Cells were incubated with or without E. coli DH5α (MOI of 5; cell to bacteria ratio 1:5) in serum-free DMEM medium for 30 min at 37° C. Both cell pellets and supernatants were collected by 3,000-rpm centrifugation for 7 min. The cell pellets were suspended with 100 μg/ml of gentamicin and incubated at 37° C. for 1 hr, followed by collection of cells and extraction of cellular proteins. The supernatant was filtered with a 0.22-μm filter (Pall corporation, Ann Arbor, Mich.) and proteins in the supernatant were then concentrated by using an Amicon Ultra-4 centrifugal filter unit designed to collect proteins with a mass greater than 3,000 daltons (Millipore, Billerica, Mass.). The quantity of the proteins was measured by using Bio-Rad DC Protein Assay (Hercules, Calif.).^29 The change in granule protein levels with or without E. coli stimuli was analyzed in parallel by WB.

Molecule | toxicity (in words) (CD34+ cells [1]; Am80 2.5 nM, 6 days) | cell death (in words) (CD34+ cells [1]; Am80 10 nM) | cell death rate (in words) (CD34+ cells [1]) | cell proliferation (in words) (CD34+ cells [1]) | efficacy of mobilized neutrophils against S aureus infection (in words) (S. aureus) | neutrophil morphologic differentiation, promyelocyte to segmented stage (in words) (CD34+ cells [2]; 6 days) | granulocytic differentiation (in words) (CD34+ cells [2]; Am80 2.5 nM, 6 days) | efficacy as inducer of granulocytic differentiation (in words) (CD34+ cells [2]) | neutrophil recovery (in words) (neutropenic mice; day 3 post-CPA, Am80 5 mg/kg vs G-CSF of 250 μg, lower level of Ficoll-paque) | efficiency relative to RA or other retinoids as differentiation therapy [3] | toxicity relative to RA or other retinoids (in words) [3] | granulocytic morphologic differentiation and granule production/secretion compared with G-CSF (in words) [4] | monocytes induced (CD34+ cells [2]; G-CSF 25 ng/ml, 6 days) | granulocytic differentiation and monocytic induction by treatment time (in words) (CD34+ cells [2]; G-CSF for 6, 9 and 12 days) | neutrophil recovery (in words) (neutropenic mice; day 5, injection for 2 consecutive days)
CC1(C)CCC(C)(C)c2cc(NC(=O)c3ccc(C(=O)O)cc3)ccc21 [Am80, tamibarotene] | less toxicity than 5 nM of Am80 | induced more cell death | lower than seen with either CH55 or RA | inhibited cell proliferation | significantly more efficacious against S aureus infection than those by G-CSF | sufficiently induced | profoundly induced granulocytic differentiation with negligible monocytic induction | promote granulocytic differentiation with similar effectiveness | competitive neutrophil recovery | approximately 10 fold | lower toxicity | more effective than G-CSF | – | – | –
CC(C)(C)c1cc(C(=O)/C=C/c2ccc(C(=O)O)cc2)cc(C(C)(C)C)c1 [CH55] | – | – | – | inhibited cell proliferation | – | – | – | promote granulocytic differentiation with similar effectiveness | – | – | – | – | – | – | –
CC1=C(/C=C/C(C)=C/C=C/C(C)=C/C(=O)O)C(C)(C)CCC1 [RA, all-trans retinoic acid] | – | – | – | inhibited cell proliferation | – | – | – | promote granulocytic differentiation with similar effectiveness | – | – | – | – | – | – | –
G-CSF: recombinant granulocyte colony-stimulating factor (protein, UniProt P09919 31-207, looked up) Granulocyte …: TPLGPASSLPQSFLLKCLEQVRKIQGDGAALQEKLVSECATYKLCHPEELVLLGHSLGIPWAPLSSCPSQALQLAGCLSQLHSGLFLYQGLLQALEGISPELGPTLDTLQLDVADFATTIWQQMEELGMAPALQPTQGAMPAFASAFQRRAGGVLVASHLQSFLEVSYRVLRHLAQP | – | – | lower rate of cell death compared to RA | greater cell proliferation | – | induced more myeloblasts as well as promyelocytes and myelocytes than banded and segmented neutrophils | – | significantly less efficacious | – | – | – | – | about 10% | more effective granulocytic differentiation with the lowest rate of monocytic induction on day 6 | remarkably accelerated neutrophil recovery
